≈ marks a conversion by molar mass, not a printed value. Calls of active or inactive are those of the source. The rule behind the calls is not given here.
Tests used:
HepG2 = assay: Cytotoxicity against human HepG2 cells by MTT assay; assay type: functional, cell-based
[1] = (§1) Cytotoxicity against human […] by MTT assay; assay type: functional, cell-based
RAW264.7 [2] = assay: Antiinflammatory activity in LPS-stimulated mouse RAW264.7 cells assessed as reduction of iNOS levels at 50 uM by immunoblot analysis relative to control; assay type: functional; design: scale not given: the % may be the effect or the level left
MCF7 = assay: Cytotoxicity against human MCF7 cells by MTT assay; assay type: functional, cell-based
RAW264.7 [3] = assay: Antiinflammatory activity in LPS-stimulated mouse RAW264.7 cells assessed as reduction of COX2 expression by immunoblot analysis relative to control; assay type: functional, cell-based
A549 = assay: Cytotoxicity against human A549 cells by MTT assay; assay type: functional, cell-based
MDA-MB-23 = assay: as §1; assay type: functional, cell-based
RAW264.7 [4] = assay: Induction of iNOS levels in LPS-stimulated mouse RAW264.7 cells at 50 uM by immunoblot analysis relative to control; assay type: functional
RAW264.7 [5] = assay: Induction of COX2 expression in LPS-stimulated mouse RAW264.7 cells at 50 uM by immunoblot analysis relative to control; assay type: functional

For C/C1=C\C=C(\C(C)(C)O)CC[C@H](C)CC(=O)C/C(C)=C/CC1 [GRANDILOBATIN D], the Activity (HepG2) was “inactive”, the IC50 [1] was 15.8 µg/mL (≈ 51.9 µM) and the Activity (RAW264.7 [2]) was 28.7%. For the same molecule, the Activity (MCF7) was “inactive”, the Activity (RAW264.7 [3]) was “inactive” and the Activity (A549) was “inactive”.

In the case of C/C1=C/C(=O)C[C@@H](C)CC/C(C(C)(C)O)=C\C=C(/C)CCC1, the Activity (HepG2) is reported as “inactive”, the Activity (MDA-MB-23) is reported as “inactive” and the Activity (MCF7) is reported as “inactive”. The Activity (A549) was “inactive”.

For C/C1=C\CCC(=O)[C@H](C)/C=C(/C(C)(C)O)CC[C@H](C)CC(=O)C1, the Activity (HepG2) was “inactive”, the Activity (MDA-MB-23) was “inactive” and the Activity (MCF7) was “inactive”. The Activity (A549) was “inactive”.

With C/C1=C\CC[C@]2(C)O[C@H]2/C=C(/C(C)(C)O)CC[C@H](C)CC(=O)C1 (relative stereo) [GRANDILOBATIN B] the Activity (HepG2) was “inactive”, the Activity (RAW264.7 [4]) was 112.4% and the Activity (MDA-MB-23) was “inactive”. The Activity (RAW264.7 [2]) was “inactive”, the Activity (MCF7) was “inactive” and the Activity (RAW264.7 [5]) was 117.3%. The Activity (RAW264.7 [3]) was “inactive” and the Activity (A549) was “inactive”.

For CO[C@@]1(C(C)(C)O)/C=C/[C@](C)(O)CC/C=C(\C)CC(=O)C[C@@H](C)CC1 (relative stereo), the Activity (HepG2) was “inactive”, the Activity (MDA-MB-23) was “inactive” and the Activity (MCF7) was “inactive”. The Activity (A549) was “inactive”.

Reference: ChEMBL document CHEMBL1157386, “A C-3 methylated isocembranoid and 10-oxocembranoids from a formosan soft coral, Sinularia grandilobata” (J Nat Prod, 2008)
